Patent US9820487B2, “Abscinazole” (NATIONAL UNIVERSITY CORPORATION SHIZUOKA UNIVERSITY, priority 2014, dated 2017)

Key:
[1] = system: thale cress (Arabidopsis thaliaria, Col-0); assay: Thale cress growth test (survival after dry treatment); assay type: in vivo
Protocol: Five plant bodies of 2-week old thale cress (Arabidopsis thaliaria, Col-0) grown in Gelzan medium (containing MS medium mixed salts and 1% sucrose) were transplanted to a 200 mL-plastic pot containing a culture soil obtained by mixing vermiculite and premix in 1:1 and grown at 22° C. for 2 weeks under the condition of 16 hour light period—8 hour dark period. At this stage, the moisture content was adjusted so that the mass of the pot containing the plant and the culture soil was to be about 150 g. 50 ml, of a 50 μM aqueous solution of the (−) form of Example 1 (containing 0.05% Tween-20 and 0.2% MeOH) was sprayed to the above-ground part on 27 pots (135 seedlings of thale cress in total) once a day for 3 days. The pots on which above-ground part were sprayed with 50 mL of an aqueous solution free from the above compound (containing 0.05% Tween-20 and 0.2% MeOH) once a day for 3 days were used as controls. The pots were dry-treated for 12 days and subsequently watered, and the number of plant bodies survived 3 days later was counted, from which the survival rate was calculated in accordance with the following formula (5).
Survival rate (%)=Number of plant bodies survived (piece)/Total number of plant bodies (piece)×100 . . .(5)

[2] = molecular target: T1, ent-kaurene oxidase CYP701A6 (Oryza sativa subsp. japonica, UniProt Q5Z5R4); assay: Ent-kaurene oxidase CYP701A6 inhibition test; assay type: biochemical; settings: CYP701A6 + NADPH-P450 reductase ATR2, substrate ent-kaurene, 30° C. 30 minutes; IC50 calculated from two concentrations
T1 sequence (Q5Z5R4 1-505): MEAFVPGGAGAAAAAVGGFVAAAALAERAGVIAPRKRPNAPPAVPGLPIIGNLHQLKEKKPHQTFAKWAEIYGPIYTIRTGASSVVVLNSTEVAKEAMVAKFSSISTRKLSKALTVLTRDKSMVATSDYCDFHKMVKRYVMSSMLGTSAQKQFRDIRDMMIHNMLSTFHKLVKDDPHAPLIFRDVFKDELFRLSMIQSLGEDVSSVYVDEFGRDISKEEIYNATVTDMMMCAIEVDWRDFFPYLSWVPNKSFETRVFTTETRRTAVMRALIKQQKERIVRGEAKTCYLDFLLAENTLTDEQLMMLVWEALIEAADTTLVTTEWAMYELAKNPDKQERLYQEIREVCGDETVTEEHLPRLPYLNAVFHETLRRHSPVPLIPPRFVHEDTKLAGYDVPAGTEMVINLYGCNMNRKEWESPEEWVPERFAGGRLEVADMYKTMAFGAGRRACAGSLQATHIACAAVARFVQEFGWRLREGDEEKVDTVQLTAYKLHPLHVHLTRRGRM
Protocol: To a 1.5 mL microtube, 8 μL of an aqueous solution of 500 μM ent-kaurene as a substrate in 45% cyclodextrin and 8μL of a solution of the sample in dimethylformamide were put. 10 μL of 2.32 μM ent-kaurene oxidase CYP701A6 and 10 μL of 4.6 unit/mL NADPH-P450 reductase ATR2, heated at 30° C. for 5 minutes in advance, were added thereto. 304 μL of ultra-pure water, 40 μL of 500 mM KPB and 20 μL of an aqueous solution of 20 mM NADPH, heated at 30° C. for 10 minutes in advance, were added thereto thereby starting the enzyme reaction. The reaction was carried out at 30° C. for 30 minutes at a rotation speed of 1000 rpm and 100 μL of 1 M hydrochloric acid was added thereto thereby terminating the reaction. 5 μL of 10 μM abietic acid as the internal standard was added thereto, and the solution was extracted with 400 μL of ethyl acetate. The resultant was dried over sodium sulfate and subsequently concentrated under reduced pressure. 50 μL of methanol and 5 μL of 2 M trimethyl silyldiazomethane were added thereto to methylate carboxylic acid and the resultant was thy-solidified using nitrogen. The solidified product was dissolved in 150 μL of hexane and 1 μL of the resultant solution was subjected to a GC-MS analysis to detect the enzyme metabolite ent-kaurene acid. The CYP701A6 inhibition rate of the samples was calculated in accordance with the following formula (4). Note that the peak area of ent-kaurene acid was calculated from the peak area of m/z 273 and that ent-kaurene acid was identified from the area ratio of m/z 257, 213. The peak area of abietic acid was calculated from the area of m/z 256, and abietic acid was identified from the area ratio of m/z 316. Note that dimethylformamide was used for the control in place of the sample solution. Each sample was tested with two different concentrations to act late the 50% inhibition concentration (IC50) based on the enzyme inhibition rates thereof.
Enzyme inhibition rate (%)={1-(Ent-kaurene acid peak area of each sample/Abietic acid peak area of each sample/(Ent-kaurene acid peak area of control/Abietic acid peak area of control }×100 . . . (4)

potency estimated from few doses [2]: 780 nM
Structure (SMILES): COCCOCCOCCOCC#Cc1cccc(/C=C(\[C@@H](O)C(C)(C)C)n2cncn2)c1 [Example 1 (−) Form, (−)-(S)-(E)-1-(3-(2,5,8,11-tetraoxatetradec-13-yn-14-yl)phenyl)-4,4-dimethyl-2-(1H-1,2,4-triazol-1-yl)pent-1-en-3-ol]
survival rate after dry treatment ([1]; 50 μM aqueous solution sprayed once a day for 3 days, dry-treated 12 days, watered, counted 3 days later, control 15%): 75% | withering due to dryness ([1]; sprayed to thale cress, 50 μM, dry treatment 12 days): reduced
